Assay results reported in patent US11485987B2, “Methods for inducing bioorthogonal reactivity” (University of Delaware, priority 2015, dated 2022).
Numbering of substitutions follows the chain as printed.

Experiments:
[1] = NIR photocatalytic oxidation/Diels-Alder/payload release (methylene blue, 660 nm LED)
Description: Encouraged by calculation, the inventors synthesized the compound 7, where p-nitrophenol serves as a model payload that can be readily monitored by UV and NMR (FIG. 7, panel A). To study the Diels-Alder/elimination sequence […], the inventors chose to oxidize 7 with Dess-Martin periodinane—a reagent that instantaneously oxidizes dihydrotetrazines to tetrazines. […] Upon LED irradiation (660 nm, 9.1 mW/cm^2) of 7 (28 μM) in MeOH in the presence of catalytic methylene blue (7 μM), complete oxidation/Diels-Alder/payload release within 15 minutes was observed (FIG. 7, panel B). In this photocatalytic reaction, aliquots by ESI-MS were analyzed, and intermediates 8 and 9 were not detected.
[…]. […] The reaction of 12 to produce 13 and 14 could also be promoted by irradiating a solution of 12 in 60% H2O/MeOH for 30 min with a 660 nm LED light source in the presence of catalytic amounts of methylene blue with monitoring by UV-Vis. The complete conversion to product 13 could be observed by UV-vis within 30 minutes.

[2] = Tetrazine hydrolytic stability in PBS; assay type: physicochemical; details: 800 μM, PBS buffer, 25° C.
Description: A challenge to the development of catalytic methods for turning on the tetrazine ligation was the identification of a DHTz/Tz pair that would be stable in both oxidation states (FIG. 1, panel B). For most redox couples, either the DHTz is too readily oxidized in air (e.g., 1), or the Tz is too reactive toward water and other nucleophiles (e.g., 2). The inventors show here that the dipyridyl DHTz/Tz pair (3/4) has good stability in both states (FIG. 1, panel C). Dihydrotetrazines 3 are highly resistant toward background oxidation in organic solvents, and a number of derivatives have been synthesized and shown stable even to silica gel chromatography. […] Aqueous solutions of 3a were handled in glassware that had been first rinsed with 2.0 mM EDTA in PBS to remove adventitious metal impurities. After standing in the dark at 25° C. in PBS buffer, a solution of 3a was monitored by UV-vis and shown to retain 99 and 96% of the DHTz oxidation state over 30 min and 2.5 hours respectively. […] In PBS containing 10% mouse serum, 90% of 3a was retained in the DHTz oxidation state after 1 h. […]
Solutions (1 mL) containing 4a (800 μM) in PBS buffer were prepared in cuvettes from stock solutions. Tetrazine concentration was measured by recording the absorbance at 525 nm every 20 minutes while holding the cuvette at either 25 for 24 hours.

[3] = target: T1, F41A APEX2 (Glycine max, UniProt Q43758, A134P/E112K/K14D/W41A); test: Oxidation of DHT by F41A APEX2, UV-Vis initial rates and kinetic parameters; assay type: biochemical; details: for Initial rate of oxidation of DHT by F41A APEX2 + SOD: SOD 1 μM, PBS, 100 μM EDTA, first 100 s
T1 sequence (Q43758 1-250 A134P/E112K/K14D/W41A): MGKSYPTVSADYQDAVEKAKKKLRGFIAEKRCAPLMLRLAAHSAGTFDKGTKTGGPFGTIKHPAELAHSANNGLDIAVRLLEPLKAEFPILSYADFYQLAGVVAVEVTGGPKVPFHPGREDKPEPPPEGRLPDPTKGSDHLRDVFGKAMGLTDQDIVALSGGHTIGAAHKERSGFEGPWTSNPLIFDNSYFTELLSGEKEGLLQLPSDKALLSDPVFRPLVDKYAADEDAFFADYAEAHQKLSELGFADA
Description: (§1) UV-Vis and fluorescence measurements were conducted in quartz cuvettes. All reactions were conducted in phosphate buffered saline (PBS) containing 100 μM EDTA with a pH=7.4. The PBS was prepared by adding 25 mM phosphate salts (Na2HPO4 and NaH2PO4), 100 mM NaCl, 100 μM EDTA to DI water. EDTA was added to quench free metals that can oxidize DHT. The buffer was pH adjusted to 7.4 using 1 mM HCl and 1 mM NaOH. UV experiments were stirred at 25° C. in a temperature-controlled cuvette holder of the spectrophotometer. Solutions of 15 or 16 were prepared from methanol stock solutions.
(§2) SOD (1 μM) was added to PBS containing 100 μM EDTA. 15 or 16 (60 μM) was added from methanol stock solutions. After 10s, APEX2 (SEQ ID NO:1) or F41A APEX2 (275 nM) was dosed in and oxidation was monitored at 325 nm for 15 and 285 nm for 16 at 60s intervals.
(§3) The initial rate of oxidation was calculated from the first 100 seconds after APEX2 (SEQ ID NO:1) or F41A APEX2 was added ([…]). In the assays where SOD was added, SOD (1 μM) was added to PBS containing 100 μM EDTA and 15 or 16 was dosed in. 10 seconds later, APEX2 (SEQ ID NO:1) or F41A APEX2 ([…]) was added and the rate of oxidation was calculated from the first 100 seconds after APEX2 (SEQ ID NO:1) or F41A APEX2 ([…]) addition. The initial rate of oxidation was adjusted to background oxidation of DHT in PBS with 100 μM EDTA. Kinetic parameters (Table 2) were determined using GraphPad's Prism 6 software from the data presented below (Table 3-4).

[4] = target: T2, APEX2 (SEQ ID NO:1) (Glycine max, UniProt Q43758, A134P/E112K/K14D/W41F); test: Oxidation of DHT by APEX2, UV-Vis initial rates and kinetic parameters; assay type: biochemical; details: PBS, 100 μM EDTA, first 100 s; for Initial rate of oxidation of DHT by APEX2 (SEQ ID NO: 1) + SOD: SOD 1 μM
T2 sequence (Q43758 1-250 A134P/E112K/K14D/W41F): T1 sequence (Q43758 1-250 A134P/E112K/K14D/W41A) with A41F
Description: as §1
15 or 16 (60 μM) from methanol stock solutions was added to PBS containing 100 μM EDTA. After 10s, APEX2 (SEQ ID NO:1) (275 nM) was dosed in and oxidation was monitored at 325 nm for 15 and 285 nm for 16 at 60s intervals (FIG. 10B-C).
16 (15 μM) DHT from methanol stock solutions was added to PBS containing 100 μM EDTA. After 10s, APEX2 (SEQ ID NO:1) (275 nM) or HRP (15 nM) was dosed in and oxidation was monitored at 285 nm at 10s intervals (FIG. 10D)
as §2, §3

## CCCCN(C(=O)/C=C/Oc1ccc([N+](=O)[O-])cc1)c1cccnc1C1=NNC(c2ccccn2)=NN1 [compound 7, (E)-N-butyl-3-(4-nitrophenoxy)-N-(2-(6-(pyridin-2-yl)-1,4-dihydro-1,2,4,5-tetrazin-3-yl)pyridin-3-yl)acrylamide]
[1]; 28 μM in MeOH, methylene blue 7 μM, LED 660 nm 9.1 mW/cm^2
  time to complete oxidation/Diels-Alder/payload release: ≤ 15 min

## O=C(O)CCC(=O)Nc1ccc(-c2nnc(-c3ccccn3)nn2)nc1 [4a, 4-oxo-4-((6-(6-(pyridin-2-yl)-1,2,4,5-tetrazin-3-yl)pyridin-3-yl)amino)butanoic Acid]
[2]; 2 h
  tetrazine fidelity: 98%
[2]; 24 h
  tetrazine fidelity: 83%

## CCCCNC(=O)C1=NNC(c2ccccn2)=NN1 [compound 16]
[3]; DHT 5 μM
  Initial rate of oxidation of DHT by F41A APEX2 + SOD: 0.334 +/− 0.010 ×10^−8 M/s
[3]; DHT 10 μM
  Initial rate of oxidation of DHT by F41A APEX2 + SOD: 0.642 +/− 0.035 ×10^−8 M/s
[3]; DHT 15 μM
  Initial rate of oxidation of DHT by F41A APEX2 + SOD: 1.124 +/− 0.034 ×10^−8 M/s
[3]; DHT 20 μM
  Initial rate of oxidation of DHT by F41A APEX2 + SOD: 2.132 +/− 0.035 ×10^−8 M/s
[3]; DHT 25 μM
  Initial rate of oxidation of DHT by F41A APEX2 + SOD: 2.568 +/− 0.131 ×10^−8 M/s
[3]; DHT 30 μM
  Initial rate of oxidation of DHT by F41A APEX2 + SOD: 2.129 +/− 0.076 ×10^−8 M/s
[3]; DHT 35 μM
  Initial rate of oxidation of DHT by F41A APEX2 + SOD: 3.078 +/− 0.025 ×10^−8 M/s
[3]; DHT 40 μM
  Initial rate of oxidation of DHT by F41A APEX2 + SOD: 2.964 +/− 0.011 ×10^−8 M/s
[3]; DHT 50 μM
  Initial rate of oxidation of DHT by F41A APEX2 + SOD: 3.867 +/− 0.049 ×10^−8 M/s
[3]; DHT 55 μM
  Initial rate of oxidation of DHT by F41A APEX2 + SOD: 3.709 +/− 0.336 ×10^−8 M/s
[3]; DHT 75 μM
  Initial rate of oxidation of DHT by F41A APEX2 + SOD: 4.549 +/− 0.150 ×10^−8 M/s
[3]; DHT 85 μM
  Initial rate of oxidation of DHT by F41A APEX2 + SOD: 5.098 +/− 0.571 ×10^−8 M/s
[3]; F41A APEX2 mutant with SOD
  factor of increase of rate of catalysis versus APEX2 (SEQ ID NO:1): 5
[4]; DHT 4 μM
  Initial rate of oxidation of DHT by APEX2 (SEQ ID NO: 1) + SOD: 0.429 +/− 0.022 ×10^−8 M/s
[4]; DHT 5 μM
  Initial rate of oxidation of DHT by APEX2 (SEQ ID NO: 1): 0.319 +/− 0.056 ×10^−8 M/s
[4]; DHT 10 μM
  Initial rate of oxidation of DHT by APEX2 (SEQ ID NO: 1): 0.673 +/− 0.002 ×10^−8 M/s
  Initial rate of oxidation of DHT by APEX2 (SEQ ID NO: 1) + SOD: 1.011 +/− 0.170 ×10^−8 M/s
[4]; DHT 15 μM
  Initial rate of oxidation of DHT by APEX2 (SEQ ID NO: 1): 0.810 +/− 0.081 ×10^−8 M/s
  Initial rate of oxidation of DHT by APEX2 (SEQ ID NO: 1) + SOD: 1.662 +/− 0.004 ×10^−8 M/s
[4]; DHT 20 μM
  Initial rate of oxidation of DHT by APEX2 (SEQ ID NO: 1): 1.169 +/− 0.095 ×10^−8 M/s
[4]; DHT 30 μM
  Initial rate of oxidation of DHT by APEX2 (SEQ ID NO: 1): 1.131 +/− 0.182 ×10^−8 M/s
  Initial rate of oxidation of DHT by APEX2 (SEQ ID NO: 1) + SOD: 2.073 +/− 0.046 ×10^−8 M/s
[4]; DHT 40 μM
  Initial rate of oxidation of DHT by APEX2 (SEQ ID NO: 1): 1.427 +/− 0.265 ×10^−8 M/s
  Initial rate of oxidation of DHT by APEX2 (SEQ ID NO: 1) + SOD: 2.379 +/− 0.350 ×10^−8 M/s
[4]; DHT 45 μM
  Initial rate of oxidation of DHT by APEX2 (SEQ ID NO: 1): 1.376 +/− 0.071 ×10^−8 M/s
  Initial rate of oxidation of DHT by APEX2 (SEQ ID NO: 1) + SOD: 2.234 +/− 0.088 ×10^−8 M/s
[4]; DHT 50 μM
  Initial rate of oxidation of DHT by APEX2 (SEQ ID NO: 1): 1.438 +/− 0.017 ×10^−8 M/s
  Initial rate of oxidation of DHT by APEX2 (SEQ ID NO: 1) + SOD: 2.149 +/− 0.009 ×10^−8 M/s
[4]; DHT 55 μM
  Initial rate of oxidation of DHT by APEX2 (SEQ ID NO: 1) + SOD: 2.503 +/− 0.210 ×10^−8 M/s
[4]; DHT 60 μM
  Initial rate of oxidation of DHT by APEX2 (SEQ ID NO: 1): 1.396 +/− 0.123 ×10^−8 M/s
  Initial rate of oxidation of DHT by APEX2 (SEQ ID NO: 1) + SOD: 2.376 +/− 0.450 ×10^−8 M/s
[4]; DHT 70 μM
  Initial rate of oxidation of DHT by APEX2 (SEQ ID NO: 1) + SOD: 2.746 +/− 0.180 ×10^−8 M/s
[4]; DHT 75 μM
  Initial rate of oxidation of DHT by APEX2 (SEQ ID NO: 1): 1.766 +/− 0.080 ×10^−8 M/s
[4]; DHT 85 μM
  Initial rate of oxidation of DHT by APEX2 (SEQ ID NO: 1): 1.695 +/− 0.114 ×10^−8 M/s
[4]; DHT 90 μM
  Initial rate of oxidation of DHT by APEX2 (SEQ ID NO: 1) + SOD: 2.491 +/− 0.032 ×10^−8 M/s

## COCCOCCOCCOCCOCCOCCOCCOCCOc1ccc(C2=NNC(c3ncccc3N(C)C(=O)/C=C/Oc3ccc(N(CCCl)CCCl)cc3)=NN2)nc1 [compound 12, (E)-N-(2-(6-(5-(2,5,8,11,14,17,20,23-octaoxapentacosan-25-yloxy)pyridin-2-yl)-1,4-dihydro-1,2,4,5-tetrazin-3-yl)pyridin-3-yl)-3-(4-(bis(2-chloroethyl)amino)phenoxy)-N-methylacrylamide]
[1]; 60% H2O/MeOH, 660 nm LED, catalytic methylene blue, UV-vis
  time to complete conversion to product 13: ≤ 30 min
